Reference: PMC6301270 (MedChemComm, 2018)

What follows are compounds tested on T.b. brucei (strain 427) bloodstream form parasites (assay: T.b. brucei single concentration screen (10 μM)). Conditions: Trypanosoma brucei, read-out: T.b.brucei % viability (10 µM).
Work on `COc1ccc2nc(C)cc(OCC(=O)Nc3ccccc3OC)c2c1` [MMV687188, COc1ccc2nc(C)cc(OCC(=O)Nc3ccccc3OC)c2c1] yielded a viability at 10 µM of 92%. `COc1ccc2nc(C)cc(OCC(=O)NCc3ccccc3)c2c1` [MMV687189, COc1ccc2nc(C)cc(OCC(=O)NCc3ccccc3)c2c1] was tested, and the viability at 10 µM was 92%. Work on `CC(C)(C(=O)Nc1ccc(F)cc1)n1cc(-c2ccccc2F)cn1` [MMV687239, CC(C)(C(=O)Nc1ccc(F)cc1)n2cc(cn2)c3ccccc3F] yielded a viability at 10 µM of 89%. With `NC(=O)c1cc(Br)ccc1OCCOc1ccccc1` [MMV687243, NC(=O)c1cc(Br)ccc1OCCOc2ccccc2] the viability at 10 µM was 92%. Compound `CN1CCN(S(=O)(=O)c2ccc(-c3ccc4c(Nc5ccc6nn[nH]c6c5)ccnc4c3)cc2)CC1` [MMV687246, CN1CCN(CC1)S(=O)(=O)c2ccc(cc2)c3ccc4c(Nc5ccc6nn[nH]c6c5)ccnc4c3] has a viability at 10 µM of 106%. For `Cn1c(=O)c2c(S(C)(=O)=O)snc2n(C)c1=O` [MMV687251, CN1C(=O)N(C)c2nsc(c2C1=O)S(=O)(=O)C], the viability at 10 µM was 98%. `CCCCc1ccc(C(=O)Nc2nccc3ccccc23)nc1` [MMV687254, CCCCc1ccc(nc1)C(=O)Nc2nccc3ccccc23] was tested, and the viability at 10 µM was 81%. `CCc1nc2ccc(Cl)cn2c1C(=O)NCc1ccc(N2CCC(c3ccc(OC(F)(F)F)cc3)CC2)cc1` [MMV687696, CCc1nc2ccc(Cl)cn2c1C(=O)NCc3ccc(cc3)N4CCC(CC4)c5ccc(OC(F)(F)F)cc5] was tested, and the viability at 10 µM was 99%. `O=C(NCc1cc(Cl)cc(Cl)c1)c1c(C(F)(F)F)nc2ccccn12` [MMV687699, FC(F)(F)c1nc2ccccn2c1C(=O)NCc3cc(Cl)cc(Cl)c3] showed a viability at 10 µM of 99%. `Nc1ncnc2c1ncn2[C@@H]1O[C@H](COS(=O)(=O)NC(=O)c2ccccc2O)[C@@H](O)[C@H]1O` [MMV687700, Nc1ncnc2c1ncn2[C@@H]3O[C@H](COS(=O)(=O)NC(=O)c4ccccc4O)[C@@H](O)[C@H]3O] showed a viability at 10 µM of 104%. With `O=C1O[C@@H](CO)CN1c1cc(F)c(C2=CCN(Cc3ccccc3)CC2)c(F)c1` [MMV687729, OC[C@H]1CN(C(=O)O1)c2cc(F)c(C3=CCN(Cc4ccccc4)CC3)c(F)c2] the viability at 10 µM was 101%. For `CCCCOC(=O)Nc1cc2nc(C3CCCCC3)[nH]c2cc1N1CCCC1` [MMV687730, CCCCOC(=O)Nc1cc2nc([nH]c2cc1N3CCCC3)C4CCCCC4], the viability at 10 µM was 61%. With `Cc1cc(OCC(=O)NCc2ccccc2)c2cc(Br)ccc2n1` [MMV687747, Cc1cc(OCC(=O)NCc2ccccc2)c3cc(Br)ccc3n1] the viability at 10 µM was 89%. `c1ccc(C[C@@H]2CN(c3nccc(Oc4ccc(-n5ccnc5)cc4)n3)CCN2)cc1` [MMV687749, C([C@@H]1CN(CCN1)c2nccc(Oc3ccc(cc3)n4ccnc4)n2)c5ccccc5] showed a viability at 10 µM of 60%. `CC1(C)OB(O)c2ccc(C3=NOC(c4cc(Cl)c(F)c(Cl)c4)(C(F)(F)F)C3)cc21` (stereo not drawn) [MMV687775, CC1(C)OB(O)c2ccc(cc12)C3=NOC(C3)(c4cc(Cl)c(F)c(Cl)c4)C(F)(F)F] showed a viability at 10 µM of 33%. With `CC1(C)Cc2c(c(N3CCOCC3)nc3snc(Br)c23)CO1` [MMV687794, CC1(C)Cc2c(CO1)c(nc3snc(Br)c23)N4CCOCC4] the viability at 10 µM was 50%. `O=C1O[C@@H](COc2ccon2)CN1c1cc(F)c(C2=CCN(Cc3ccccc3)CC2)c(F)c1` [MMV687813, Fc1cc(cc(F)c1C2=CCN(Cc3ccccc3)CC2)N4C[C@H](COc5ccon5)OC4=O] showed a viability at 10 µM of 113%. `Cc1cccc(-c2nc(Nc3ccncn3)c3sccc3n2)n1` [MMV688122, Cc1cccc(n1)c2nc(Nc3ccncn3)c4sccc4n2] was tested, and the viability at 10 µM was 85%. Work on `CCc1ccc(S(=O)(=O)Nc2cc(CN3CCN(CCC(C)C)CC3)ccc2C)cc1` [MMV688124, CCc1ccc(cc1)S(=O)(=O)Nc2cc(CN3CCN(CCC(C)C)CC3)ccc2C] yielded a viability at 10 µM of 84%. In the case of `CCCc1ccc(S(=O)(=O)Nc2ccc(CN3CCN(CC4CC4)CC3)cc2)cc1` [MMV688125, CCCc1ccc(cc1)S(=O)(=O)Nc2ccc(CN3CCN(CC4CC4)CC3)cc2], the viability at 10 µM is reported as 72%. Work on `c1ccc(Oc2ccc(-c3cncc(-c4ccc5[nH]ccc5c4)n3)cc2)cc1` [MMV688178, O(c1ccccc1)c1ccc(cc1)-c1cncc(n1)-c1ccc2[nH]ccc2c1] yielded a viability at 10 µM of 101%. For `CC1(COc2ccc(N3CCC(Oc4ccc(OC(F)(F)F)cc4)CC3)cc2)Cn2cc([N+](=O)[O-])nc2O1` (stereo not drawn) [MMV688262, CC1(COc2ccc(cc2)N3CCC(CC3)Oc4ccc(OC(F)(F)F)cc4)Cn5cc(nc5O1)N(=O)=O], the viability at 10 µM was 74%. For `COc1ccc(-c2cnc3cnc(-c4cccc(OC(C)C)c4)cn23)cc1` [MMV688270, COc1ccc(cc1)-c1cnc2cnc(cn12)-c1cccc(OC(C)C)c1], the viability at 10 µM was 99%. Compound `Nc1ccc2ncnc(Nc3ccc(OCc4cccc(F)c4)c(Cl)c3)c2c1` [MMV688273, Nc1ccc2ncnc(Nc3ccc(OCc4cccc(F)c4)c(Cl)c3)c2c1] has a viability at 10 µM of 56%. `O=C(CN1CCOCC1)Nc1ccc2ncnc(Nc3ccc(OCc4cccc(F)c4)c(Cl)c3)c2c1` [MMV688274, Fc1cccc(COc2ccc(Nc3ncnc4ccc(NC(=O)CN5CCOCC5)cc34)cc2Cl)c1] showed a viability at 10 µM of 63%. Work on `COc1ccc(-c2nnc3ccc(-c4cccc(C(C)C)c4)cn23)cc1OC` [MMV688313, COc1ccc(cc1OC)-c1nnc2ccc(cn12)-c1cccc(c1)C(C)C] yielded a viability at 10 µM of 92%. For `CC(=O)NCC1CN(c2ccc(-c3ccc(CNCc4cn[nH]n4)cc3)c(F)c2)C(=O)O1` (stereo not drawn) [MMV688327, CC(=O)NCC1CN(C(=O)O1)c2ccc(c(F)c2)c3ccc(CNCc4cn[nH]n4)cc3], the viability at 10 µM was 68%. `CC(=O)N1CCN(c2ccc(Oc3ccc(Cl)cc3O)cc2)CC1` [MMV688330, CC(=O)N1CCN(CC1)c1ccc(Oc2ccc(Cl)cc2O)cc1] was tested, and the viability at 10 µM was 103%. Work on `Nc1nc(N)c2c3c(sc2n1)CN(Cc1ccccc1)CC3` [MMV688345, Nc1nc(N)c2c3CCN(Cc4ccccc4)Cc3sc2n1] yielded a viability at 10 µM of 110%. `COC(=O)c1ccc(F)cc1NS(=O)(=O)c1cccc(-c2cnn(Cc3ccccc3)c2)c1` [MMV688350, COC(=O)c1ccc(F)cc1NS(=O)(=O)c2cccc(c2)c3cnn(Cc4ccccc4)c3] showed a viability at 10 µM of 85%. In the case of `O=C1[C@@H](Oc2ccccc2)[C@@H](c2ccc(Cl)cc2)N1CCn1cnc2c(NCc3ccccc3)ncnc21` [MMV688352, Clc1ccc(cc1)[C@@H]2[C@H](Oc3ccccc3)C(=O)N2CCn4cnc5c(NCc6ccccc6)ncnc45], the viability at 10 µM is reported as 107%. With `c1cc(C2=NCCN2)cc(-c2cc(-c3ccc(C4=NCCN4)cc3)no2)c1` [MMV688361, C1CN=C(N1)c2ccc(cc2)c3cc(on3)c4cccc(c4)C5=NCCN5] the viability at 10 µM was 18%. Work on `COc1cc(C2=NCCN2)cc2cc(-c3ccc(C4=NCCN4)cc3)oc12` [MMV688362, COc1cc(cc2cc(oc12)c3ccc(cc3)C4=NCCN4)C5=NCCN5] yielded a viability at 10 µM of 35%. In the case of `CC(C)(C)OC(=O)N1CCC(Cn2nc(-c3cnc4ccccc4c3)c3c(N)ncnc32)CC1` [MMV688364, CC(C)(C)OC(=O)N1CCC(Cn2nc(-c3cnc4ccccc4c3)c3c(N)ncnc23)CC1], the viability at 10 µM is reported as 102%. For `COc1cc(C2=NCCN2)ccc1-c1cn(-c2cccc(C3=NCCN3)c2)nn1` [MMV688407, COc1cc(ccc1c2cn(nn2)c3cccc(c3)C4=NCCN4)C5=NCCN5], the viability at 10 µM was 87%. With `CC1=Nc2ccc(Cl)cc2C(c2ccccc2)N1CCNC(=O)CN(C)C` (stereo not drawn) [MMV688410, CN(C)CC(=O)NCCN1C(c2ccccc2)c3cc(Cl)ccc3N=C1C] the viability at 10 µM was 77%. `Nc1ncnc2c1c(-c1cnc3ccccc3c1)nn2CC1CCNCC1` [MMV688411, Nc1ncnc2n(CC3CCNCC3)nc(-c3cnc4ccccc4c3)c12] gave a viability at 10 µM of 104%. `CO[C@@H]1CN(c2ccc(C#CC3(O)CN4CCC3CC4)c(Cc3ccccc3)n2)C[C@H]1O` (stereo partly drawn) [MMV688415, CO[C@@H]1CN(C[C@H]1O)c2ccc(C#CC3(O)CN4CCC3CC4)c(Cc5ccccc5)n2] showed a viability at 10 µM of 99%. `CC(C)(C)OC(=O)N1CCN(c2nccc(-c3ccc(-c4ccc(Cl)cc4)s3)n2)CC1` [MMV688416, CC(C)(C)OC(=O)N1CCN(CC1)c2nccc(n2)c3ccc(s3)c4ccc(Cl)cc4] showed a viability at 10 µM of 94%. For `Cn1ccnc1CNCCS(=O)(=O)c1cccc(Nc2ccc(-c3cccc(F)c3)cn2)c1` [MMV688466, Cn1ccnc1CNCCS(=O)(=O)c2cccc(Nc3ccc(cn3)c4cccc(F)c4)c2], the viability at 10 µM was 87%. `Nc1ncnc2[nH]nc(Cc3cccc4ccccc34)c12` [MMV688469, Nc1ncnc2[nH]nc(Cc3cccc4ccccc34)c12] gave a viability at 10 µM of 98%. Work on `CS(=O)(=O)N1CCC(CCn2nc(Cc3cccc4ccccc34)c3c(N)ncnc32)CC1` [MMV688470, CS(=O)(=O)N1CCC(CCn2nc(Cc3cccc4ccccc34)c3c(N)ncnc23)CC1] yielded a viability at 10 µM of 99%. `CC(C(=O)Nc1ccc2oc(-c3ccncc3)nc2c1)c1ccccc1` (stereo not drawn) [MMV688471, CC(C(=O)Nc1ccc2oc(nc2c1)-c1ccncc1)c1ccccc1] was tested, and the viability at 10 µM was 67%. Compound `CC(Oc1cccc(Cl)c1)C(=O)Nc1ccc2oc(-c3ccncc3)nc2c1` (stereo not drawn) [MMV688472, CC(Oc1cccc(Cl)c1)C(=O)Nc1ccc2oc(nc2c1)-c1ccncc1] has a viability at 10 µM of 71%. For `COc1cc(C2=NCCN2)ccc1-n1cc(-c2cccc(C3=NCCN3)c2)nn1` [MMV688474, COc1cc(ccc1n2cc(nn2)c3cccc(c3)C4=NCCN4)C5=NCCN5], the viability at 10 µM was 105%. `CC(=O)NCC1CN(c2ccc(-c3ccc(CO)cc3)c(F)c2)C(=O)O1` (stereo not drawn) [MMV688508, CC(=O)NCC1CN(C(=O)O1)c2ccc(c(F)c2)c3ccc(CO)cc3] gave a viability at 10 µM of 81%. For `O=C(OCc1ccccc1)N1CCC(c2cc(-c3ccncc3)c(-c3ccc(F)cc3)[nH]2)CC1` [MMV688509, Fc1ccc(cc1)-c1[nH]c(cc1-c1ccncc1)C1CCN(CC1)C(=O)OCc1ccccc1], the viability at 10 µM was 85%. In the case of `CC(C)(C)C(=O)N(CCCCCCN1C[C@H](O)[C@@H](O)[C@H](O)[C@H]1CO)C1CCCCCC1` [MMV688543, CC(C)(C)C(=O)N(CCCCCCN1C[C@H](O)[C@@H](O)[C@H](O)[C@H]1CO)C2CCCCCC2], the viability at 10 µM is reported as 107%. `COc1ccc(C2=NCCN2)cc1-c1cn(-c2cccc(C3=NCCN3)c2)nn1` [MMV688547, COc1ccc(cc1c2cn(nn2)c3cccc(c3)C4=NCCN4)C5=NCCN5] was tested, and the viability at 10 µM was 77%. `CC(C)(C)n1nc(-c2ccccc2)c2c(N)ncnc21` [MMV688548, CC(C)(C)n1nc(-c2ccccc2)c2c(N)ncnc12] showed a viability at 10 µM of 81%. Work on `Cc1nn(C(=O)Nc2cccc(C(F)(F)F)c2)c(C)c1Sc1ncccn1` [MMV688552, CC(C(SC1=NC=CC=N1)=C2C)=NN2C(NC3=CC=CC(C(F)(F)F)=C3)=O] yielded a viability at 10 µM of 96%.
